Assay results as given in the NIST ThermoML archive (doi:10.1016/j.tca.2013.07.012).

Assay: xn = mol fraction of the nth substance listed
Details: 101 kPa, Liquid, Vibrating tube method

OCC(O)CO [glycerol] + O
Details | mass density [kg/m3]
274.15 K, x1 = 0.00209 | 1002.52
274.15 K, x1 = 0.00439 | 1005.4
274.15 K, x1 = 0.0051 | 1006.27
274.15 K, x1 = 0.00657 | 1008.08
274.15 K, x1 = 0.01072 | 1013.09
274.15 K, x1 = 0.01633 | 1019.67
275.15 K, x1 = 0.00209 | 1002.55
275.15 K, x1 = 0.00439 | 1005.42
275.15 K, x1 = 0.0051 | 1006.29
275.15 K, x1 = 0.00657 | 1008.09
275.15 K, x1 = 0.01072 | 1013.08
275.15 K, x1 = 0.01633 | 1019.63
276.15 K, x1 = 0.00209 | 1002.56
276.15 K, x1 = 0.00439 | 1005.42
276.15 K, x1 = 0.0051 | 1006.29
276.15 K, x1 = 0.00657 | 1008.08
276.15 K, x1 = 0.01072 | 1013.06
276.15 K, x1 = 0.01633 | 1019.58
277.15 K, x1 = 0.00209 | 1002.56
277.15 K, x1 = 0.00439 | 1005.41
277.15 K, x1 = 0.0051 | 1006.27
277.15 K, x1 = 0.00657 | 1008.06
277.15 K, x1 = 0.01072 | 1013.02
277.15 K, x1 = 0.01633 | 1019.51
278.15 K, x1 = 0.00209 | 1002.54
278.15 K, x1 = 0.00439 | 1005.38
278.15 K, x1 = 0.0051 | 1006.24
278.15 K, x1 = 0.00657 | 1008.02
278.15 K, x1 = 0.01072 | 1012.95
278.15 K, x1 = 0.01633 | 1019.43
278.15 K, x1 = 0.03504 | 1039.54
278.15 K, x1 = 0.05086 | 1054.94
278.15 K, x1 = 0.06775 | 1069.92
278.15 K, x1 = 0.1127 | 1103.61
278.15 K, x1 = 0.1559 | 1129.3
278.15 K, x1 = 0.206 | 1153.22
278.15 K, x1 = 0.256 | 1172.3
278.15 K, x1 = 0.3311 | 1194.33
278.15 K, x1 = 0.4012 | 1210
278.15 K, x1 = 0.4907 | 1225.46
278.15 K, x1 = 0.5828 | 1237.72
278.15 K, x1 = 0.6857 | 1248.63
278.15 K, x1 = 0.7494 | 1254.28
278.15 K, x1 = 0.8101 | 1259.12
278.15 K, x1 = 0.8528 | 1262.2
278.15 K, x1 = 0.882 | 1264.21
278.15 K, x1 = 0.9143 | 1266.2
278.15 K, x1 = 0.9408 | 1267.71
278.15 K, x1 = 0.9578 | 1268.67
278.15 K, x1 = 0.9792 | 1269.86
278.15 K, x1 = 0.9895 | 1270.39
278.15 K, x1 = 1 | 1270.87
279.15 K, x1 = 0.00209 | 1002.51
279.15 K, x1 = 0.00439 | 1005.34
279.15 K, x1 = 0.0051 | 1006.19
279.15 K, x1 = 0.00657 | 1007.97
279.15 K, x1 = 0.01072 | 1012.88
279.15 K, x1 = 0.01633 | 1019.34
280.15 K, x1 = 0.00209 | 1002.46
280.15 K, x1 = 0.00439 | 1005.28
280.15 K, x1 = 0.0051 | 1006.13
280.15 K, x1 = 0.00657 | 1007.91
280.15 K, x1 = 0.01072 | 1012.8
280.15 K, x1 = 0.01633 | 1019.23
281.15 K, x1 = 0.00209 | 1002.4
281.15 K, x1 = 0.00439 | 1005.21
281.15 K, x1 = 0.0051 | 1006.06
281.15 K, x1 = 0.00657 | 1007.82
281.15 K, x1 = 0.01072 | 1012.7
281.15 K, x1 = 0.01633 | 1019.12
282.15 K, x1 = 0.00209 | 1002.33
282.15 K, x1 = 0.00439 | 1005.13
282.15 K, x1 = 0.0051 | 1005.97
282.15 K, x1 = 0.00657 | 1007.73
282.15 K, x1 = 0.01072 | 1012.6
282.15 K, x1 = 0.01633 | 1018.99
283.15 K, x1 = 0.00209 | 1002.24
283.15 K, x1 = 0.00439 | 1005.03
283.15 K, x1 = 0.0051 | 1005.87
283.15 K, x1 = 0.00657 | 1007.62
283.15 K, x1 = 0.01072 | 1012.47
283.15 K, x1 = 0.01633 | 1018.85
288.15 K, x1 = 0.00209 | 1001.6
288.15 K, x1 = 0.00439 | 1004.35
288.15 K, x1 = 0.0051 | 1005.18
288.15 K, x1 = 0.00657 | 1006.91
288.15 K, x1 = 0.01072 | 1011.69
288.15 K, x1 = 0.01633 | 1017.97
288.15 K, x1 = 0.03504 | 1037.45
288.15 K, x1 = 0.05086 | 1052.38
288.15 K, x1 = 0.06775 | 1066.9
288.15 K, x1 = 0.1127 | 1099.65
288.15 K, x1 = 0.1559 | 1124.77
288.15 K, x1 = 0.206 | 1148.15
288.15 K, x1 = 0.256 | 1166.85
288.15 K, x1 = 0.3311 | 1188.67
288.15 K, x1 = 0.4012 | 1204.31
288.15 K, x1 = 0.4907 | 1219.67
288.15 K, x1 = 0.5828 | 1231.79
288.15 K, x1 = 0.6857 | 1242.54
288.15 K, x1 = 0.7494 | 1248.04
288.15 K, x1 = 0.8101 | 1252.82
288.15 K, x1 = 0.8528 | 1255.81
288.15 K, x1 = 0.882 | 1257.79
288.15 K, x1 = 0.9143 | 1259.78
288.15 K, x1 = 0.9408 | 1261.27
288.15 K, x1 = 0.9578 | 1262.21
288.15 K, x1 = 0.9792 | 1263.39
288.15 K, x1 = 0.9895 | 1263.91
288.15 K, x1 = 1 | 1264.4
293.15 K, x1 = 0.00209 | 1000.68
293.15 K, x1 = 0.00439 | 1003.39
293.15 K, x1 = 0.0051 | 1004.21
293.15 K, x1 = 0.00657 | 1005.92
293.15 K, x1 = 0.01072 | 1010.64
293.15 K, x1 = 0.01633 | 1016.84
293.15 K, x1 = 0.03504 | 1036.06
293.15 K, x1 = 0.05086 | 1050.82
293.15 K, x1 = 0.06775 | 1065.15
293.15 K, x1 = 0.1127 | 1097.5
293.15 K, x1 = 0.1559 | 1122.35
293.15 K, x1 = 0.206 | 1145.51
293.15 K, x1 = 0.256 | 1164.09
293.15 K, x1 = 0.3311 | 1185.75
293.15 K, x1 = 0.4012 | 1201.28
293.15 K, x1 = 0.4907 | 1216.63
293.15 K, x1 = 0.5828 | 1228.62
293.15 K, x1 = 0.6857 | 1239.29
293.15 K, x1 = 0.7494 | 1244.78
293.15 K, x1 = 0.8101 | 1249.51
293.15 K, x1 = 0.8528 | 1252.47
293.15 K, x1 = 0.882 | 1254.43
293.15 K, x1 = 0.9143 | 1256.38
293.15 K, x1 = 0.9408 | 1257.87
293.15 K, x1 = 0.9578 | 1258.81
293.15 K, x1 = 0.9792 | 1259.97
293.15 K, x1 = 0.9895 | 1260.49
293.15 K, x1 = 1 | 1260.99
298.15 K, x1 = 0.00209 | 999.49
